Results reported in patent publication US11845736B2, “Prodrugs of MDMA, MDA, and derivatives thereof” (EmpathBio, Inc., priority 2021, dated 2023).
Values after ≈ are worked out from the molar mass of the structure shown. Like-named read-outs stand apart in the source and are kept apart here.

Assays:
[1] = Compound chemical stability PBS (pH 6.5)
[2] = Compound chemical stability SGF without pepsin
[3] = Compound chemical stability SGF with pepsin
[4] = Compound solubility in FaSSIF
[5] = Compound mouse plasma stability
[6] = healthy human subjects, cited from earlier work
[7] = cited from earlier work; for Cmax / Tmax: healthy human subjects

CC(OC(=O)N(C)C(C)Cc1ccc2c(c1)OCO2)OC(=O)C(C)(C)C (stereo not shown) [Compound 3, 1-(((1-(benzo[d][1,3]dioxol-5-yl)propan-2-yl)(methyl)carbamoyl)oxy)ethyl pivalate]
% Remaining ([1]; PBS pH 6.5, 0 minutes): 100.00% | % Remaining ([1]; PBS pH 6.5, 30 minutes): 103.45% | % Remaining ([1]; PBS pH 6.5, 60 minutes): 107.91% | % Remaining ([1]; PBS pH 6.5, 120 minutes): 105.56% | % Remaining ([1]; PBS pH 6.5, 240 minutes): 96.60% | % Remaining ([2]; 0 minutes): 100.00% | % Remaining ([2]; 30 minutes): 97.82% | % Remaining ([2]; 60 minutes): 97.35% | % Remaining ([2]; 120 minutes): 93.65% | % Remaining ([2]; 240 minutes): 94.12% | % Remaining ([3]; 0 minutes): 100.00% | % Remaining ([3]; 30 minutes): 106.44% | % Remaining ([3]; 60 minutes): 108.51% | % Remaining ([3]; 120 minutes): 103.98% | % Remaining ([3]; 240 minutes): 106.17% | solubility [4]: 101 µM (≈ 37 µg/mL) | % Remaining ([5]; 0 minutes): 100% | % Remaining ([5]; 15 minutes): 0.0% | % Remaining ([5]; 30 minutes): 0.0% | % Remaining ([5]; 60 minutes): 0.0% | % Remaining ([5]; 120 minutes): 0.0%

CNC(C)Cc1ccc2c(c1)OCO2 (racemic) [MDMA, 3,4-methylenedioxymethamphetamine]
Cmax ([6]; 75 mg MDMA): 130.9 ng/mL | T1/2 (elimination half-life) ([6]; 75 mg MDMA): 7.7 h | Tmax ([6]; 75 mg MDMA): 1.8 h | Cmax ([6]; 125 mg MDMA): 236.4 ng/mL | T1/2 (elimination half-life) ([6]; 125 mg MDMA): 8.6 h | Tmax ([6]; 125 mg MDMA): 2.4 h

CCOC(=O)N(C)C(C)Cc1ccc2c(c1)OCO2 (stereo not shown) [Compound 1, ethyl(1-(benzo[d][1,3]dioxol-5-yl)propan-2-yl)(methyl)carbamate]
% Remaining ([1]; PBS pH 6.5, 0 minutes): 100.00% | % Remaining ([1]; PBS pH 6.5, 30 minutes): 90.48% | % Remaining ([1]; PBS pH 6.5, 60 minutes): 90.36% | % Remaining ([1]; PBS pH 6.5, 120 minutes): 89.59% | % Remaining ([1]; PBS pH 6.5, 240 minutes): 90.28% | % Remaining ([2]; 0 minutes): 100.00% | % Remaining ([2]; 30 minutes): 103.81% | % Remaining ([2]; 60 minutes): 101.90% | % Remaining ([2]; 120 minutes): 103.81% | % Remaining ([2]; 240 minutes): 104.29% | % Remaining ([3]; 0 minutes): 100.00% | % Remaining ([3]; 30 minutes): 101.86% | % Remaining ([3]; 60 minutes): 98.61% | % Remaining ([3]; 120 minutes): 103.31% | % Remaining ([3]; 240 minutes): 100.50% | solubility [4]: 309 µM (≈ 82 µg/mL) | % Remaining ([5]; 0 minutes): 100.00% | % Remaining ([5]; 15 minutes): 108.51% | % Remaining ([5]; 30 minutes): 87.67% | % Remaining ([5]; 60 minutes): 98.49% | % Remaining ([5]; 120 minutes): 89.31%

C[C@H](Cc1ccc2c(c1)OCO2)N(C)C(=O)OC(C)(C)C [Compound 7, tert-butyl(R)-(1-(benzo[d][1,3]dioxol-5-yl)propan-2-yl)(methyl)carbamate]
% Remaining ([1]; PBS pH 6.5, 0 minutes): 100.00% | % Remaining ([1]; PBS pH 6.5, 30 minutes): 94.54% | % Remaining ([1]; PBS pH 6.5, 60 minutes): 105.49% | % Remaining ([1]; PBS pH 6.5, 120 minutes): 105.72% | % Remaining ([1]; PBS pH 6.5, 240 minutes): 102.75% | % Remaining ([2]; 0 minutes): 100.00% | % Remaining ([2]; 30 minutes): 89.90% | % Remaining ([2]; 60 minutes): 73.62% | % Remaining ([2]; 120 minutes): 61.79% | % Remaining ([2]; 240 minutes): 30.52% | % Remaining ([3]; 0 minutes): 100.00% | % Remaining ([3]; 30 minutes): 74.97% | % Remaining ([3]; 60 minutes): 63.49% | % Remaining ([3]; 120 minutes): 56.42% | % Remaining ([3]; 240 minutes): 28.25% | solubility [4]: 257 µM (≈ 75.3 µg/mL) | % Remaining ([5]; 0 minutes): 100% | % Remaining ([5]; 15 minutes): 101% | % Remaining ([5]; 30 minutes): 92% | % Remaining ([5]; 60 minutes): 83% | % Remaining ([5]; 120 minutes): 92%

Cc1oc(=O)oc1CN[C@H](C)Cc1ccc2c(c1)OCO2 [Compound 8, (R)-4-(((1-(benzo[d][1,3]dioxol-5-yl)propan-2-yl)amino)methyl)-5-methyl-1,3-dioxol-2-one]
% Remaining ([1]; PBS pH 6.5, 0 minutes): 100% | % Remaining ([1]; PBS pH 6.5, 30 minutes): 96% | % Remaining ([1]; PBS pH 6.5, 60 minutes): 93% | % Remaining ([1]; PBS pH 6.5, 120 minutes): 75% | % Remaining ([1]; PBS pH 6.5, 240 minutes): 72% | % Remaining ([2]; 0 minutes): 100% | % Remaining ([2]; 30 minutes): 97% | % Remaining ([2]; 60 minutes): 94% | % Remaining ([2]; 120 minutes): 90% | % Remaining ([2]; 240 minutes): 86% | % Remaining ([3]; 0 minutes): 100% | % Remaining ([3]; 30 minutes): 103% | % Remaining ([3]; 60 minutes): 98% | % Remaining ([3]; 120 minutes): 96% | % Remaining ([3]; 240 minutes): 92% | solubility [4]: 283 µM (≈ 82.4 µg/mL) | % Remaining ([5]; 0 minutes): 100% | % Remaining ([5]; 15 minutes): 72% | % Remaining ([5]; 30 minutes): 54% | % Remaining ([5]; 60 minutes): 25% | % Remaining ([5]; 120 minutes): 6%

CC(Cc1ccc2c(c1)OCO2)NC(=O)CN (stereo not shown) [Compound 5, 2-amino-N-(1-(benzo[d][1,3]dioxol-5-yl)propan-2-yl)acetamide]
% Remaining ([1]; PBS pH 6.5, 0 minutes): 100.00% | % Remaining ([1]; PBS pH 6.5, 30 minutes): 95.53% | % Remaining ([1]; PBS pH 6.5, 60 minutes): 97.09% | % Remaining ([1]; PBS pH 6.5, 120 minutes): 98.67% | % Remaining ([1]; PBS pH 6.5, 240 minutes): 105.87% | % Remaining ([2]; 0 minutes): 100.00% | % Remaining ([2]; 30 minutes): 101.17% | % Remaining ([2]; 60 minutes): 91.48% | % Remaining ([2]; 120 minutes): 95.49% | % Remaining ([2]; 240 minutes): 100.41% | % Remaining ([3]; 0 minutes): 100.00% | % Remaining ([3]; 30 minutes): 99.68% | % Remaining ([3]; 60 minutes): 105.84% | % Remaining ([3]; 120 minutes): 94.42% | % Remaining ([3]; 240 minutes): 91.97% | solubility [4]: 304 µM (≈ 71.8 µg/mL) | % Remaining ([5]; 0 minutes): 100.00% | % Remaining ([5]; 15 minutes): 103.33% | % Remaining ([5]; 30 minutes): 87.64% | % Remaining ([5]; 60 minutes): 90.78% | % Remaining ([5]; 120 minutes): 83.06%

CC(N)Cc1ccc2c(c1)OCO2 (stereo not shown) [MDA]
Cmax ([7]; 75 mg MDA): 7.8 ng/mL | Tmax ([7]; 75 mg MDMA): 5 h | Cmax ([7]; 125 mg MDA): 13.7 ng/mL | Tmax ([7]; 125 mg MDMA): 7 h | MDA formation rate constant ([7]; estimated for both MDMA doses): about 0.75 h

CCOC(=O)NC(C)Cc1ccc2c(c1)OCO2 (stereo not shown) [Compound 2, ethyl(1-(benzo[d][1,3]dioxol-5-yl)propan-2-yl)carbamate]
% Remaining ([1]; PBS pH 6.5, 0 minutes): 100.00% | % Remaining ([1]; PBS pH 6.5, 30 minutes): 89.05% | % Remaining ([1]; PBS pH 6.5, 60 minutes): 87.87% | % Remaining ([1]; PBS pH 6.5, 120 minutes): 91.21% | % Remaining ([1]; PBS pH 6.5, 240 minutes): 88.66% | % Remaining ([2]; 0 minutes): 100.00% | % Remaining ([2]; 30 minutes): 102.53% | % Remaining ([2]; 60 minutes): 101.64% | % Remaining ([2]; 120 minutes): 90.45% | % Remaining ([2]; 240 minutes): 99.40% | % Remaining ([3]; 0 minutes): 100.00% | % Remaining ([3]; 30 minutes): 100.95% | % Remaining ([3]; 60 minutes): 97.74% | % Remaining ([3]; 120 minutes): 98.18% | % Remaining ([3]; 240 minutes): 99.08% | solubility [4]: 313 µM (≈ 78.8 µg/mL) | % Remaining ([5]; 0 minutes): 100.00% | % Remaining ([5]; 15 minutes): 101.77% | % Remaining ([5]; 30 minutes): 86.60% | % Remaining ([5]; 60 minutes): 89.02% | % Remaining ([5]; 120 minutes): 84.42%

C[C@H](Cc1ccc2c(c1)OCO2)NC(=O)OC(C)(C)C [Compound 6, tert-butyl(R)-(1-(benzo[d][1,3]dioxol-5-yl)propan-2-yl)carbamate]
% Remaining ([1]; PBS pH 6.5, 0 minutes): 100.00% | % Remaining ([1]; PBS pH 6.5, 30 minutes): 84.81% | % Remaining ([1]; PBS pH 6.5, 60 minutes): 93.60% | % Remaining ([1]; PBS pH 6.5, 120 minutes): 103.65% | % Remaining ([1]; PBS pH 6.5, 240 minutes): 91.66% | % Remaining ([2]; 0 minutes): 100.00% | % Remaining ([2]; 30 minutes): 87.96% | % Remaining ([2]; 60 minutes): 77.20% | % Remaining ([2]; 120 minutes): 57.49% | % Remaining ([2]; 240 minutes): 28.57% | % Remaining ([3]; 0 minutes): 100.00% | % Remaining ([3]; 30 minutes): 85.17% | % Remaining ([3]; 60 minutes): 79.89% | % Remaining ([3]; 120 minutes): 56.87% | % Remaining ([3]; 240 minutes): 31.48% | solubility [4]: 175 µM (≈ 49 µg/mL) | % Remaining ([5]; 0 minutes): 100% | % Remaining ([5]; 15 minutes): 102% | % Remaining ([5]; 30 minutes): 106% | % Remaining ([5]; 60 minutes): 92% | % Remaining ([5]; 120 minutes): 95%

CC(Cc1ccc2c(c1)OCO2)N(C)C(=O)CN (stereo not shown) [Compound 4, 2-amino-N-(1-(benzo[d][1,3]dioxol-5-yl)propan-2-yl)-N-methylacetamide]
% Remaining ([1]; PBS pH 6.5, 0 minutes): 100.00% | % Remaining ([1]; PBS pH 6.5, 30 minutes): 88.84% | % Remaining ([1]; PBS pH 6.5, 60 minutes): 92.54% | % Remaining ([1]; PBS pH 6.5, 120 minutes): 92.04% | % Remaining ([1]; PBS pH 6.5, 240 minutes): 92.48% | % Remaining ([2]; 0 minutes): 100.00% | % Remaining ([2]; 30 minutes): 94.49% | % Remaining ([2]; 60 minutes): 96.72% | % Remaining ([2]; 120 minutes): 96.67% | % Remaining ([2]; 240 minutes): 96.46% | % Remaining ([3]; 0 minutes): 100.00% | % Remaining ([3]; 30 minutes): 108.06% | % Remaining ([3]; 60 minutes): 98.50% | % Remaining ([3]; 120 minutes): 106.18% | % Remaining ([3]; 240 minutes): 103.88% | solubility [4]: 291 µM (≈ 72.9 µg/mL) | % Remaining ([5]; 0 minutes): 100.00% | % Remaining ([5]; 15 minutes): 102.99% | % Remaining ([5]; 30 minutes): 83.50% | % Remaining ([5]; 60 minutes): 94.51% | % Remaining ([5]; 120 minutes): 87.42%

Cc1oc(=O)oc1CN(C)[C@H](C)Cc1ccc2c(c1)OCO2 [Compound 9, (R)-4-(((1-(benzo[d][1,3]dioxol-5-yl)propan-2-yl)(methyl)amino)methyl)-5-methyl-1,3-dioxol-2-one]
% Remaining ([1]; PBS pH 6.5, 0 minutes): 100% | % Remaining ([1]; PBS pH 6.5, 30 minutes): 83% | % Remaining ([1]; PBS pH 6.5, 60 minutes): 75% | % Remaining ([1]; PBS pH 6.5, 120 minutes): 55% | % Remaining ([1]; PBS pH 6.5, 240 minutes): 32% | % Remaining ([2]; 0 minutes): 1000% | % Remaining ([2]; 30 minutes): 94% | % Remaining ([2]; 60 minutes): 89% | % Remaining ([2]; 120 minutes): 83% | % Remaining ([2]; 240 minutes): 72% | % Remaining ([3]; 0 minutes): 100% | % Remaining ([3]; 30 minutes): 97% | % Remaining ([3]; 60 minutes): 92% | % Remaining ([3]; 120 minutes): 87% | % Remaining ([3]; 240 minutes): 71% | solubility [4]: 223 µM (≈ 68.2 µg/mL) | % Remaining ([5]; 0 minutes): 100% | % Remaining ([5]; 15 minutes): 70% | % Remaining ([5]; 30 minutes): 22% | % Remaining ([5]; 60 minutes): 4%
